In patent US6849612B2, “Oligonucleotide modulation of cell adhesion” (ISIS Pharmaceuticals, Inc., priority 1993, dated 2005):
Strand notation (5' to 3'): a small letter for the sugar, then the base; units joined by * are phosphorothioate-linked, units joined directly phosphodiester-linked; [ ] holds rarer units or linkages, { } end groups; capitals alone tell only the bases. d = 2'-deoxy (DNA)

Columns and labels:
ELAM-1 = assay: ELISA of ELAM-1 expression in TNF-stimulated HUVEC; type: cell-based, human; conditions: for ELAM-1 expression (% of control) / IC50: HUVEC; for ELAM-1 expression (% of control): TNF-α […] 4 hours; for IC50: TNF-α, read-out: IC50 for inhibition of ELAM-1 expression (asterisk); for inhibition of ELAM-1 expression: TNF-treated HUVEC
Procedure: (§1) Primary human umbilical vein endothelial (HUVEC) cells, passage 2 to 5, were plated in 96-well plates and allowed to reach confluence. Cells were washed three times with Opti-MEM (GIBCO, Grand Island N.Y.). Cells were treated with increasing concentrations of oligonucleotide diluted in Opti-MEM containing 10 μg/ml DOTMA solution (Bethesda Research Labs, Bethesda, Md.) for 4 hours at 370C. The medium was removed and replaced with EGM-UV (Clonetics, San Diego Calif.) plus oligonucleotide. Tumor necrosis factor α was added to the medium (2.5 ng/ml) and the cells were incubated an additional 4 hours at 37° C.
(§2) ELAM-1 expression was determined by ELISA. Cells were gently washed three times with Dulbecco's phosphate-buffered saline (D-PBS) prewarmed to 37° C. Cells were fixed with 95% ethanol at 4° C. for 20 minutes, washed three times with D-PBS and blocked with 2% BSA in D-PBS. Cells were incubated with ELAM-1 monoclonal antibody BBA-1 (R&D Systems, Minneapolis Minn.) diluted to 0.5 μg/ml in D-PBS containing 2% BSA for 1 hour at 37° C. Cells were washed three times with D-PBS and the bound ELAM-1 antibody detected with biotinylated goat anti-mouse secondary antibody followed by β-galactosidase-conjugated streptavidin as described in Example 1.
ELISA screening of additional antisense oligonucleotides for activity against ELAM-1 gene expression Inhibition of ELAM-1 expression by eighteen antisense phosphorothioate oligonucleotides was determined using the ELISA assay as described in Example 12.

VCAM-1 = assay: ELISA of VCAM-1 expression in TNF-stimulated HUVEC; type: cell-based, human; conditions: for VCAM-1 EXPRESSION 30 nM oligo (VCAM-1 expression is given as % of control) / VCAM-1 EXPRESSION 50 nM oligo (VCAM-1 expression is given as % of control): TNF-α 16 hours; for IC50: TNF-α, read-out: IC50 for inhibition of VCAM-1 expression (asterisk)
Procedure: as §1, §2
Inhibition of VCAM-1 expression by fifteen antisense phosphorothioate oligonucleotides was determined using the ELISA assay approximately as described in Example 12, except that cells were stimulated with TNF-àfor 16 hours and VCAM-1 expression was detected by a VCAM-1 specific monoclonal antibody (R & D Systems, Minneapolis, Minn.) used at 0.5 μg/ml.

Row | Substance | ELAM-1 expression (% of control) (ELAM-1; 30 nM oligo) | ELAM-1 expression (% of control) (ELAM-1; 50 nM oligo) | IC50 (ELAM-1) [nM] | inhibition of ELAM-1 expression (ELAM-1) | VCAM-1 EXPRESSION 30 nM oligo (VCAM-1 expression is given as % of control) (VCAM-1) | VCAM-1 EXPRESSION 50 nM oligo (VCAM-1 expression is given as % of control) (VCAM-1) | IC50 (VCAM-1) [nM]
1 | ISIS 2670: P=S, human ELAM-1 3′-UTR 3717-3736, SEQ ID NO 29, ACCACACTGGTATTTCACAC (antisense dA*dC*dC*dA*dC*dA*dC*dT*dG*dG*dT*dA*dT*dT*dT*dC*dA*dC*dA*dC) | 72.2 % of control | 67.2 % of control | – | – | – | – | –
2 | ISIS 2673: P=S, human ELAM-1 3′-UTR 2656-2676, SEQ ID NO 30, GTATGGAAGATTATAATATAT (antisense dG*dT*dA*dT*dG*dG*dA*dA*dG*dA*dT*dT*dA*dT*dA*dA*dT*dA*dT*dA*dT) | 58.9 % of control | 53.8 % of control | – | – | – | – | –
3 | ISIS 2674: P=S, human ELAM-1 3′-UTR 2617-2637, SEQ ID NO 31, CACAATCCTTAAGAACTCTTT (antisense dC*dA*dC*dA*dA*dT*dC*dC*dT*dT*dA*dA*dG*dA*dA*dC*dT*dC*dT*dT*dT) | 33.5 % of control | 28.1 % of control | ≤ 50 | – | – | – | –
4 | ISIS 2678: P=S, human ELAM-1 3′-UTR 3557-3576, SEQ ID NO 32, ACCTCTGCTGTTCTGATCCT (antisense dA*dC*dC*dT*dC*dT*dG*dC*dT*dG*dT*dT*dC*dT*dG*dA*dT*dC*dC*dT) | 24.9 % of control | 15.3 % of control | ≤ 50 | – | – | – | –
5 | ISIS 2679: P=S, human ELAM-1 5′-UTR 40-59, SEQ ID NO 33, CTGCTGCCTCTGTCTCAGGT (antisense dC*dT*dG*dC*dT*dG*dC*dC*dT*dC*dT*dG*dT*dC*dT*dC*dA*dG*dG*dT) | 6.4 % of control | 6.0 % of control | ≤ 50 | most potent | – | – | –
6 | ISIS 2683: P=S, human ELAM-1 AUG 143-163, SEQ ID NO 35, AATCATGACTTCAAGAGTTCT (antisense dA*dA*dT*dC*dA*dT*dG*dA*dC*dT*dT*dC*dA*dA*dG*dA*dG*dT*dT*dC*dT) | 47.9 % of control | 48.5 % of control | ≤ 50 | – | – | – | –
7 | ISIS 2686: P=S, human ELAM-1 AUG 148-168, SEQ ID NO 36, TGAAGCAATCATGACTTCAAG (antisense dT*dG*dA*dA*dG*dC*dA*dA*dT*dC*dA*dT*dG*dA*dC*dT*dT*dC*dA*dA*dG) | 51.1 % of control | 46.9 % of control | ≤ 50 | – | – | – | –
8 | ISIS 2687: P=S, human ELAM-1 5′-UTR 17-36, SEQ ID NO 37, TATAGGAGTTTTGATGTGAA (antisense dT*dA*dT*dA*dG*dG*dA*dG*dT*dT*dT*dT*dG*dA*dT*dG*dT*dG*dA*dA) | 91.1 % of control | 73.8 % of control | – | did not show significant activity | – | – | –
9 | ISIS 2694: P=S, human ELAM-1 3′-UTR 2933-2953, SEQ ID NO 39, GACAATATACAAACCTTCCAT (antisense dG*dA*dC*dA*dA*dT*dA*dT*dA*dC*dA*dA*dA*dC*dC*dT*dT*dC*dC*dA*dT) | 72.0 % of control | 64.6 % of control | – | – | – | – | –
10 | ISIS 3791: phosphorothioate, human VCAM-1 5′UTR 38-58, SEQ ID NO 61, CCTGGGAGGGTATTCAGCT (antisense dG*dC*dC*dT*dG*dG*dG*dA*dG*dG*dG*dT*dA*dT*dT*dC*dA*dG*dC*dT) | – | – | – | – | 92.6 % of control | 58.0 % of control | –
11 | ISIS 3792: phosphorothioate, human VCAM-1 AUG 110-129, SEQ ID NO 63, GGCATTTTAAGTTGCTGTCG (DNA, all phosphorothioate, methylation of C not given here) | – | – | – | – | 68.7 % of control | 33.7 % of control | ≤ 50
12 | ISIS 3794: phosphorothioate, human VCAM-1 TERMIN. 2344-2362, SEQ ID NO 69, TGAACATATCAAGCATTAGC (DNA, all phosphorothioate, methylation of C not given here) | – | – | – | – | 75.3 % of control | 52.6 % of control | –
13 | ISIS 3800: phosphorothioate, human VCAM-1 3′-UTR 2620-2639, SEQ ID NO 70, GCAATCTTGCTATGGCATAA (DNA, all phosphorothioate, methylation of C not given here) | – | – | – | – | 64.4 % of control | 47.7 % of control | ≤ 50
14 | ISIS 3801: phosphorothioate, human VCAM-1 3′-UTR 2872-2892, SEQ ID NO 50, AACCCAGTGCTCCCTTTGCT (DNA, all phosphorothioate, methylation of C not given here) | – | – | – | – | 36.5 % of control | 21.3 % of control | ≤ 50
15 | ISIS 3805: phosphorothioate, human VCAM-1 3′-UTR 2826-2845, SEQ ID NO 71, CCCGGCATCTTTACAAAACC (DNA, all phosphorothioate, methylation of C not given here) | – | – | – | – | 7.7 % of control | 44.9 % of control | ≤ 50
16 | ISIS 4719: phosphorothioate, human ELAM-1 3′-UTR 2993-3012, SEQ ID NO 58, ACGTTTGGCCTCATGGAAGT (antisense dA*dC*dG*dT*dT*dT*dG*dG*dC*dC*dT*dC*dA*dT*dG*dG*dA*dA*dG*dT) | 36.8 % of control | 34.7 % of control | ≤ 50 | – | – | – | –
17 | ISIS 4720: phosphorothioate, human ELAM-1 3′-UTR 3093-3112, SEQ ID NO 59, GGAATGCAAAGCACATCCAT (antisense dG*dG*dA*dA*dT*dG*dC*dA*dA*dA*dG*dC*dA*dC*dA*dT*dC*dC*dA*dT) | 63.5 % of control | 70.6 % of control | – | – | – | – | –
18 | ISIS 4729: phosphorothioate, human ELAM-1 3′-UTR 2063-2082, SEQ ID NO 57, GGGCCAGAGACCCGAGGAGA (antisense dG*dG*dG*dC*dC*dA*dG*dA*dG*dA*dC*dC*dC*dG*dA*dG*dG*dA*dG*dA) | 49.4 % of control | 46.3 % of control | ≤ 50 | – | – | – | –
19 | ISIS 4730: phosphorothioate, human ELAM-1 I/E 3′UTR 2006-2025, SEQ ID NO 56, TCCCCAGATGCACCTGTTT (antisense dT*dT*dC*dC*dC*dC*dA*dG*dA*dT*dG*dC*dA*dC*dC*dT*dG*dT*dT*dT) | 14.1 % of control | 2.3 % of control | ≤ 50 | – | – | – | –
20 | ISIS 4732: phosphorothioate, human ELAM-1 Coding 1936-1955, SEQ ID NO 55, CTGATTCAAGGCTTTGGCAG (antisense dC*dT*dG*dA*dT*dT*dC*dA*dA*dG*dG*dC*dT*dT*dT*dG*dG*dC*dA*dG) | 68.5 % of control | 55.3 % of control | – | – | – | – | –
21 | ISIS 4756: phosphorothioate, human ELAM-1 I/E 177-196, SEQ ID NO 54, CCAAAGTGAGAGCTGAGAGA (antisense dC*dC*dA*dA*dA*dG*dT*dG*dA*dG*dA*dG*dC*dT*dG*dA*dG*dA*dG*dA) | 53.9 % of control | 35.7 % of control | ≤ 50 | – | – | – | –
22 | ISIS 4759: phosphorothioate, human ELAM-1 5′-UTR 64-83, SEQ ID NO 53, ACAGGATCTCTCAGGTGGGT (antisense dA*dC*dA*dG*dG*dA*dT*dC*dT*dC*dT*dC*dA*dG*dG*dT*dG*dG*dG*dT) | 30.0 % of control | 20.2 % of control | ≤ 50 | – | – | – | –
23 | ISIS 4764: phosphorothioate, human ELAM-1 5′-UTR 1-19, SEQ ID NO 52, GAAGTCAGCCAAGAACAGCT (antisense dG*dA*dA*dG*dT*dC*dA*dG*dC*dC*dA*dA*dG*dA*dA*dC*dA*dG*dC*dT) | 70.2 % of control | 50.2 % of control | ≤ 50 | – | – | – | –
